Assay results reported in patent publication US11629171B2, “Beta-hairpin peptidomimetics” (POLYPHOR AG, priority 2017, dated 2023).
Values after ≈ are worked out from the molar mass of the structure shown. Where a SMILES comes first, the peptide text is derived from it. Bridges are numbered along the chain shown (N, C = ends). Roman numbers before positions name the chains, in order. [ ]: non-standard residue; d: D form. Thr(ol) = C[C@@H](O)[C@H](N)CO; Tle = CC(C)(C)[C@H](N)C(=O)O; NMeV = CN[C@H](C(=O)O)C(C)C; Hiv = CC(C)[C@H](O)C(=O)O; dDab = NCC[C@@H](N)C(=O)O; hSer = N[C@@H](CCO)C(=O)O; Dab = NCC[C@H](N)C(=O)O; Abu = CC[C@H](N)C(=O)O; Dap = NC[C@H](N)C(=O)O

Legend:
[1] = system: human red blood cells (hRBC); experiment: Hemolysis; type: cell-based; conditions: red cells of human, 1 h, 200
Outline: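 hRBC washed 4× in PBS; 200 μg/mL peptide + 20% (v/v) hRBC, 1 h, 37° C, 300 rpm. Spin, supernatant ~7.5-fold diluted, OD540 blank corrected. % hemolysis = OD540 peptide / OD540 Triton X-100 × 100.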

male ICR mice = experiment: Tolerability in a mouse model (Maximum Tolerated Dose assay); type: in vivo; conditions: 2 × 30 mg/kg s.c. at a 12-hr interval, groups of 3
Method: The tolerability of the peptides was tested in a mouse model at Pharmacology Discovery Services Taiwan Ltd, Taipei, Taiwan. The peptides were administered subcutaneously (s.c.) at 30 mg/kg or 40 mg/kg, respectively; twice at a 12-hr interval, for assessment of possible adverse effects in the Maximum Tolerated Dose (MTD) assay in male ICR (Institute of Cancer Research) mice. The peptides were dissolved in 0.9% NaCl at the concentrations either of 6 or 8 mg/mL, respectively, based on the free base molecular weight. The pH values of dosing solutions were adjusted to 6.5-7.6 before s.c. administration. A dosing volume at 5 mL/kg and a concentration of 6 or 8 mg/mL, respectively, was applied. The fresh prepared stock solution were stored at 4° C. during the study. Male ICR mice weighing 23±3 g were provided by BioLasco Taiwan (under Charles River Laboratories Licensee). Animals were acclimated for 3 days prior to use and were confirmed to be in good health. The peptides were administered s.c. at 30 mg/kg or 40 mg/kg, respectively, twice at a 12-hr interval, to groups of 3 ICR male mice and observed for the presence of acute toxic symptoms (mortality, convulsions, tremors, muscle relaxation, sedation, etc.) and autonomic effects (diarrhea, salivation, lacrimation, vasodilation, piloerection, etc.) during the first 30 min. The peptides were administered again at a 12-hr (two total doses) interval, following the first dose. The animals were then observed again for the presence of acute toxic symptoms and autonomic effects during the first 30 min.

[2] = system: Klebsiella pneumoniae 968733; type: cell-based; conditions: 968733
Outline: (§1)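 Visible-growth endpoint after 18-20 h at 35° C defines the MIC (μg/mL). Setup: CLSI broth microdilution, MH-II cation-adjusted broth with P-80 at 0.002% final, inoculum of approximately 10^6 CFU/mL, two-fold serial peptide dilutions.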

[3] = system: Klebsiella pneumoniae SSI #3010; type: cell-based; conditions: SSI #3010
Outline: as §1

Escherichia coli 926415 = type: cell-based; conditions: 926415
Outline: as §1

[4] = system: Escherichia coli ATCC 25922; type: cell-based; conditions: ATCC 25922
Outline: as §1

[5] = system: Pseudomonas aeruginosa ATCC 27853; type: cell-based; conditions: ATCC 27853
Outline: as §1

[6] = system: Acinetobacter baumannii 872842; type: cell-based; conditions: 872842
Outline: as §1

[7] = system: Enterobacter cloacae 848840; type: cell-based; conditions: 848840
Outline: as §1

[8] = system: Acinetobacter baumannii DSM 30008; type: cell-based; conditions: DSM 30008
Outline: as §1

CC[C@@H]1NC(=O)[C@@H](CC(C)C)NC(=O)[C@H](CCN)NC(=O)[C@@H](NC(=O)[C@H](CN)NC(=O)[C@@H](NC(=O)[C@H](CCN)NC(=O)CC[C@@H]2NC(=O)[C@H]([C@@H](C)O)NC(=O)[C@H](Cc3ccc(O)cc3)NC(=O)[C@@H](NC(=O)[C@@H](NC(C)=O)C(C)C)CSSC[C@@H](C(=O)N[C@@H](CO)C(N)=O)NC(=O)[C@H]([C@@H](C)CC)NC(=O)[C@H](CO)NC(=O)[C@H](Cc3c[nH]c4ccccc34)NC(=O)[C@H](CCN)NC(=O)[C@@H](CCN)NC2=O)[C@@H](C)O)CCNC(=O)[C@H]([C@@H](C)O)NC(=O)[C@H](CCN)NC(=O)[C@H](CCN)NC1=O [Ex. 258] (I: Ac-VCYTE[dDab][Dab]WSICS-NH2 / II: [Dab]T[Dap][Dab][Dab][dL][Abu][Dab][Dab]T; disulfide I:2-I:11; amide I:5-II:N; lactam II:4-II:C)
Hemolysis at 200 μg/mL [1]: 2%
Mortality and dose (male ICR mice): 0/3 died at 2 × 30 mg/kg
MIC [2]: 0.125 µg/mL (≈ 0.0521 µM)
MIC [3]: 0.03125 µg/mL (≈ 0.013 µM)
MIC (Escherichia coli 926415): 0.25 µg/mL (≈ 0.104 µM)
MIC [4]: 0.0625 µg/mL (≈ 0.0261 µM)
MIC [5]: 0.0625 µg/mL (≈ 0.0261 µM)
MIC [6]: 0.03125 µg/mL (≈ 0.013 µM)
MIC [7]: 0.0625 µg/mL (≈ 0.0261 µM)
MIC [8]: 0.03125 µg/mL (≈ 0.013 µM)

CN[C@H](C(=O)N[C@H]1CSSC[C@@H](C(=O)N[C@@H](CO)C(=O)O)NC(=O)[C@H](C(C)C)NC(=O)[C@H](CO)NC(=O)[C@H](Cc2c[nH]c3ccccc23)NC(=O)[C@H](CCO)NC(=O)[C@@H](CCN)NC(=O)[C@H](CCC(=O)N[C@@H](CCN)C(=O)N[C@H](C(=O)N[C@@H](CCN)C(=O)N[C@H]2CCNC(=O)[C@H]([C@@H](C)O)NC(=O)[C@H](CCN)NC(=O)[C@H](CCN)NC(=O)[C@H](CC(C)C)NC(=O)[C@@H](CC(C)C)NC(=O)[C@H](CCN)NC2=O)[C@@H](C)O)NC(=O)[C@H](CCN)NC(=O)[C@H](Cc2ccc(O)cc2)NC1=O)C(C)C [Ex. 42] (I: H-[NMeV]CY[Dab]E[dDab][hSer]WSVCS-OH / II: [Dab]T[Dab][Dab][Dab][dL]L[Dab][Dab]T; disulfide I:2-I:11; amide I:5-II:N; lactam II:4-II:C; C-terminus assumed)
Hemolysis at 200 μg/mL [1]: <1%
Mortality and dose (male ICR mice): 0/3 died at 2 × 30 mg/kg
MIC [2]: 2 µg/mL (≈ 0.833 µM)
MIC [3]: 0.25 µg/mL (≈ 0.104 µM)
MIC (Escherichia coli 926415): 0.5 µg/mL (≈ 0.208 µM)
MIC [4]: 0.125 µg/mL (≈ 0.0521 µM)
MIC [5]: 0.25 µg/mL (≈ 0.104 µM)
MIC [6]: 1 µg/mL (≈ 0.417 µM)
MIC [7]: 4 µg/mL (≈ 1.67 µM)
MIC [8]: 0.5 µg/mL (≈ 0.208 µM)

CC(C)C[C@@H]1NC(=O)[C@@H](CC(C)C)NC(=O)[C@H](CCN)NC(=O)[C@@H](NC(=O)[C@H](CCN)NC(=O)[C@@H](NC(=O)[C@H](CCN)NC(=O)CC[C@@H]2NC(=O)[C@@H](NC(=O)[C@H](Cc3ccc(O)cc3)NC(=O)[C@@H](NC(=O)[C@@H](O)C(C)C)[C@@H](C)O)CSSC[C@@H](C(=O)N[C@H](C(=O)N[C@@H](C)C(=O)N[C@H](CO)[C@@H](C)O)C(C)(C)C)NC(=O)[C@H](Cc3c[nH]c4ccccc34)NC(=O)[C@H]([C@@H](C)O)NC(=O)[C@@H](CCN)NC2=O)[C@@H](C)O)CCNC(=O)[C@H]([C@@H](C)O)NC(=O)[C@H](CCN)NC(=O)[C@H](CCN)NC1=O [Ex. 188] (I: H-[Hiv]TYCE[dDab]TWC[Tle]A[Thr(ol)] / II: [Dab]T[Dab][Dab][Dab][dL]L[Dab][Dab]T; disulfide I:4-I:9; amide I:5-II:N; lactam II:4-II:C)
Hemolysis at 200 μg/mL [1]: <1%
Mortality and dose (male ICR mice): 0/3 died at 2 × 30 mg/kg
MIC [2]: 1 µg/mL (≈ 0.419 µM)
MIC [3]: 0.25 µg/mL (≈ 0.105 µM)
MIC (Escherichia coli 926415): 0.5 µg/mL (≈ 0.21 µM)
MIC [4]: 0.0625 µg/mL (≈ 0.0262 µM)
MIC [5]: 0.5 µg/mL (≈ 0.21 µM)
MIC [6]: 0.5 µg/mL (≈ 0.21 µM)
MIC [7]: 0.5 µg/mL (≈ 0.21 µM)
MIC [8]: 0.125 µg/mL (≈ 0.0524 µM)
